Laboratory results published in patent publication US20260347364A1, “PYRAZOLO[4,3-F]QUINAZOLINE DERIVATIVES AS MODULATORS OF G12D MUTANT KRAS USEFUL FOR THE TREATMENT OF CANCER” (JAZZ PHARMACEUTICALS IRELAND LTD., priority 2023, published 2026).

Legend:
KRAS WT = target: T1, KRAS WT (Homo sapiens, UniProt P01116); assay: HTRF nucleotide exchange assay, KRAS WT; assay type: biochemical; conditions: class symbols; for IC50: HTRF nucleotide exchange assay (NEA)
T1 construct: aa1-188 KRAS WT

KRAS G12D = target: T2, KRAS G12D (Homo sapiens, UniProt P01116, G12D); assay: HTRF nucleotide exchange assay, KRAS G12D; assay type: biochemical; conditions: class symbols; for IC50: HTRF nucleotide exchange assay (NEA)
T2 construct: aa1-188 KRAS WT, HRAS WT, NRAS WT, or KRAS containing the G12D

Row | SMILES | IC50 (KRAS WT) | IC50 (KRAS G12D) | KRAS^G12D NEA (KRAS G12D) | KRAS^WT NEA (KRAS WT)
1 | CCc1c(F)ccc2cc(O)cc(-c3c(C)c4nc(OCC5(C)CC(O)CN5)nc(N5CCOCC(C)(O)C5)c4c4cn(C)nc34)c12 (stereo not drawn) [Example 145, 4-[4-(8-ethyl-7-fluoro-3-hydroxy-1-naphthyl)-7-[(4-hydroxy-2-methyl-pyrrolidin-2-yl)methoxy]-2,5-dimethyl-pyrazolo[4,3-f]quinazolin-9-yl]-6-methyl-1,4-oxazepan-6-ol] | ≤ 10 nM | ≤ 10 nM | – | –
2 | CCc1c(F)ccc2cc(O)cc(-c3cc4nc(OCC56CCCN5CCC6)nc(N5CCCOCC5)c4c4cn(C)nc34)c12 [Example 6, 5-ethyl-6-fluoro-4-[7-(1,2,3,5,6,7-hexahydropyrrolizin-8-ylmethoxy)-2-methyl-9-(1,4-oxazepan-4-yl)pyrazolo[4,3-f]quinazolin-4-yl]naphthalen-2-ol] | ≤ 10 nM | ≤ 10 nM | – | –
3 | Cn1cc2c(n1)c(-c1cccc3sc(N)c(C#N)c13)cc1nc(OC[C@@]34CCCN3C[C@H](F)C4)nc(N3CCCOCC3)c12 [Example 3, 2-amino-4-[2-methyl-9-(1,4-oxazepan-4-yl)-7-[[(2R,8S)-2-fluoro-1,2,3,5,6,7-hexahydropyrrolizin-8-yl]methoxy]pyrazolo[4,3-f]quinazolin-4-yl]benzothiophene-3-carbonitrile] | 100 to 10000 nM | – | D (<49% inhibition at 10 μM) | –
4 | CCc1c(F)ccc2cc(O)cc(-c3c(C)c4nc(OC[C@]5(C)CCCN5)nc(N5CCC[C@@](C)(O)C5)c4c4cn(C)nc34)c12 (mixture of isomers) [Example 211, (3R)-1-[4-(8-ethyl-7-fluoro-3-hydroxy-1-naphthyl)-2,5-dimethyl-7-[[rac-(2S)-2-methylpyrrolidin-2-yl]methoxy]pyrazolo[4,3-f]quinazolin-9-yl]-3-methyl-piperidin-3-ol] | ≤ 10 nM | ≤ 10 nM | – | –
5 | CCc1c(F)ccc2cc(O)cc(-c3c(C)c4nc(OC[C@]5(C)CCCN5C)nc(N5CCOCC(C)(O)C5)c4c4cn(C)nc34)c12 (stereo partly drawn) [Example 148, 4-[4-(8-ethyl-7-fluoro-3-hydroxy-1-naphthyl)-2,5-dimethyl-7-[[(2S)-1,2-dimethylpyrrolidin-2-yl]methoxy]pyrazolo[4,3-f]quinazolin-9-yl]-6-methyl-1,4-oxazepan-6-ol] | ≤ 10 nM | ≤ 10 nM | – | –
6 | Cn1cc2c(n1)c(-c1c(O)cccc1F)cc1nc(OC[C@@]34CCCN3C[C@H](F)C4)nc(N3CCCOCC3)c12 [Example 4, 3-fluoro-2-[2-methyl-9-(1,4-oxazepan-4-yl)-7-[[(2R,8S)-2-fluoro-1,2,3,5,6,7-hexahydropyrrolizin-8-yl]methoxy]pyrazolo[4,3-f]quinazolin-4-yl]phenol] | – | – | D (<49% inhibition at 10 μM) | D (<49% inhibition at 10 μM)
7 | CCc1c(F)ccc2cc(O)cc(-c3cc4nc(OC[C@@]56CCCN5C[C@H](F)C6)nc(N5CCC(CO)CC5)c4c4cn(C)nc34)c12 [Example 113, 5-ethyl-6-fluoro-4-[9-[4-(hydroxymethyl)-1-piperidyl]-2-methyl-7-[[(2R,8S)-2-fluoro-1,2,3,5,6,7-hexahydropyrrolizin-8-yl]methoxy]pyrazolo[4,3-f]quinazolin-4-yl]naphthalen-2-ol] | 10 to 100 nM | 100 to 10000 nM | – | –
8 | CCc1c(F)ccc2cc(O)cc(-c3c(C)c4nc(OC[C@@H]5CCN5C)nc(N5CCOCC(C)(O)C5)c4c4cn(C)nc34)c12 (stereo partly drawn) [Example 143, 4-[4-(8-ethyl-7-fluoro-3-hydroxy-1-naphthyl)-2,5-dimethyl-7-[[(2S)-1-methylazetidin-2-yl]methoxy]pyrazolo[4,3-f]quinazolin-9-yl]-6-methyl-1,4-oxazepan-6-ol] | ≤ 10 nM | ≤ 10 nM | – | –
9 | CCc1c(F)ccc2cc(O)cc(-c3cc4nc(OC[C@@]56CCCN5C[C@H](F)C6)nc(N5CCC6(CC6)C(O)C5)c4c4cn(C)nc34)c12 (stereo partly drawn) [Example 130, 6-[4-(8-ethyl-7-fluoro-3-hydroxy-1-naphthyl)-2-methyl-7-[[(2R,8S)-2-fluoro-1,2,3,5,6,7-hexahydropyrrolizin-8-yl]methoxy]pyrazolo[4,3-f]quinazolin-9-yl]-6-azaspiro[2.5]octan-8-ol] | 100 to 10000 nM | – | D (<49% inhibition at 10 μM) | –
